Measured values reported in PubChem BioAssay AID256 (DTP/NCI, 2004).
Toxic doses and inconclusive results are not listed.

System: CD2F1 mice, L1210 leukemia ip, survival T/C
Test: NCI In Vivo Anticancer Drug Screen. Data for tumor model L1210 Leukemia (intraperitoneal) in CD2F1 (CDF1) mice
Conditions: higher = longer survival
Procedure, shortened: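 Read-out first: treated-group measurement over vehicle-control measurement, expressed as a ratio. Animals bore a transplanted tumor line and were dosed with compound or vehicle.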

[1] = endpoint: mean survival time, dose: 200.0 mg/kg/injection, schedule: Q04DX002 (ip), vehicle: saline with Tween-80
[2] = endpoint: mean survival time, dose: 400.0 mg/kg/injection, schedule: Q04DX002 (ip), vehicle: saline with Tween-80
[3] = endpoint: mean survival time, dose: 100.0 mg/kg/injection, schedule: Q04DX003 (ip), vehicle: saline with Tween-80
[4] = endpoint: mean survival time, dose: 200.0 mg/kg/injection, schedule: Q04DX003 (ip), vehicle: saline with Tween-80
[5] = endpoint: mean survival time, dose: 400.0 mg/kg/injection, schedule: Q04DX003 (ip), vehicle: saline with Tween-80
[6] = endpoint: mean survival time, dose: 100.0 mg/kg/injection, schedule: Q04DX002 (ip), vehicle: saline with Tween-80

O=C1C=C(c2ccccc2)C2(c3ccccc3)C1C1C(c3ccccc3)=C(c3ccccc3)C2C1(O)c1ccc2ccccc2c1 (configuration not stated)
T/C (endpoint: mean survival time, dose: 100.0 mg/kg/injection, schedule: Q01DX009 (ip), vehicle: saline with Tween-80): 89 % of control
T/C (endpoint: mean survival time, dose: 200.0 mg/kg/injection, schedule: Q01DX009 (ip), vehicle: saline with Tween-80): 92 % of control
T/C (endpoint: mean survival time, dose: 400.0 mg/kg/injection, schedule: Q01DX009 (ip), vehicle: saline with Tween-80): 92 % of control

O=C(O)C(O)C(O)C(=O)O.[NH-]C1CCCCC1[NH-].[Pt+2] (configuration not stated)
T/C (endpoint: mean survival time, dose: 1.56 mg/kg/injection, schedule: Q04DX003 (ip), vehicle: water): 115 % of control
T/C (endpoint: mean survival time, dose: 12.5 mg/kg/injection, schedule: Q04DX003 (ip), vehicle: water): 367 % of control
T/C (endpoint: mean survival time, dose: 25.0 mg/kg/injection, schedule: Q04DX003 (ip), vehicle: water): 266 % of control
T/C (endpoint: mean survival time, dose: 50.0 mg/kg/injection, schedule: Q04DX003 (ip), vehicle: water): 201 % of control

CC(=O)c1c(C)c2c(C)cc3oc(=O)c(C(C)=O)c(C)c3c2oc1=O
T/C [1]: 92 % of control
T/C [2]: 87 % of control

BrCC(Br)c1ccccc1 (configuration not stated)
T/C [3]: 100 % of control
T/C [4]: 100 % of control
T/C [5]: 96 % of control

CCCCCCCCC1C(CCCCCCCC(=O)N2CCCC2)C2(Cl)C(Cl)=C(Cl)C1(Cl)C2(Cl)Cl (configuration not stated)
T/C (endpoint: mean survival time, dose: 75.0 mg/kg/injection, schedule: Q01DX001 (ip), vehicle: saline): 98 % of control
T/C (endpoint: mean survival time, dose: 150.0 mg/kg/injection, schedule: Q01DX001 (ip), vehicle: saline): 104 % of control
T/C (endpoint: mean survival time, dose: 300.0 mg/kg/injection, schedule: Q01DX001 (ip), vehicle: saline): 96 % of control

COc1ccccc1NC(=O)Oc1ccc(SC)c(C)c1
T/C [6]: 100 % of control
T/C [1]: 95 % of control
T/C [2]: 95 % of control

CC(=O)N1CCCCC1
T/C (endpoint: mean survival time, dose: 25.0 mg/kg/injection, schedule: Q01DX009 (ip), vehicle: saline): 102 % of control
T/C (endpoint: mean survival time, dose: 50.0 mg/kg/injection, schedule: Q01DX009 (ip), vehicle: saline): 96 % of control
T/C (endpoint: mean survival time, dose: 100.0 mg/kg/injection, schedule: Q01DX009 (ip), vehicle: saline): 102 % of control

O=C1NC(=O)C(=Cc2cc3c(cc2Br)OCO3)C(=O)N1
T/C (endpoint: mean survival time, dose: 25.0 mg/kg/injection, schedule: Q01DX009 (ip), vehicle: Klucel (hydroxypropylcellulose) (HPC)): 91 % of control
T/C (endpoint: mean survival time, dose: 50.0 mg/kg/injection, schedule: Q01DX009 (ip), vehicle: Klucel (hydroxypropylcellulose) (HPC)): 93 % of control
T/C (endpoint: mean survival time, dose: 100.0 mg/kg/injection, schedule: Q01DX009 (ip), vehicle: Klucel (hydroxypropylcellulose) (HPC)): 89 % of control
T/C [6]: 104 % of control
T/C (endpoint: mean survival time, dose: 200.0 mg/kg/injection, schedule: Q01DX009 (ip), vehicle: Klucel (hydroxypropylcellulose) (HPC)): 100 % of control
T/C [1]: 112 % of control
T/C [2]: 108 % of control

Nc1nc(N)c2nc(CCOc3ccc(C(=O)NC(CCC(=O)O)C(=O)O)cc3)cnc2n1 (configuration not stated)
T/C (endpoint: mean survival time, dose: 0.38 mg/kg/injection, schedule: Q01DX009 (ip), vehicle: sodium bicarbonate): 87 % of control
T/C (endpoint: mean survival time, dose: 0.75 mg/kg/injection, schedule: Q01DX009 (ip), vehicle: sodium bicarbonate): 90 % of control
T/C (endpoint: mean survival time, dose: 1.5 mg/kg/injection, schedule: Q01DX009 (ip), vehicle: sodium bicarbonate): 87 % of control
T/C (endpoint: mean survival time, dose: 3.0 mg/kg/injection, schedule: Q01DX009 (ip), vehicle: sodium bicarbonate): 87 % of control
T/C (endpoint: mean survival time, dose: 6.0 mg/kg/injection, schedule: Q01DX009 (ip), vehicle: sodium bicarbonate): 98 % of control
T/C (endpoint: mean survival time, dose: 12.0 mg/kg/injection, schedule: Q01DX009 (ip), vehicle: distilled water + Tween-80): 104 % of control
T/C (endpoint: mean survival time, dose: 24.0 mg/kg/injection, schedule: Q01DX009 (ip), vehicle: distilled water + Tween-80): 102 % of control
T/C (endpoint: mean survival time, dose: 48.0 mg/kg/injection, schedule: Q01DX009 (ip), vehicle: distilled water + Tween-80): 104 % of control

CCCCCCCNC(=O)Nc1cc([N+](=O)[O-])ccc1C
T/C [3]: 93 % of control
T/C [4]: 94 % of control
T/C [5]: 98 % of control

N#Cc1c(Cl)cc(C2(OC(=O)c3ccc([N+](=O)[O-])cc3)C3C=CC2CC3)cc1Cl (configuration not stated)
T/C (endpoint: median survival time, dose: 25.0 mg/kg/injection, schedule: Q04DX002 (ip), vehicle: saline with Tween-80): 100 % of control
T/C (endpoint: median survival time, dose: 50.0 mg/kg/injection, schedule: Q04DX002 (ip), vehicle: saline with Tween-80): 87 % of control
T/C (endpoint: median survival time, dose: 100.0 mg/kg/injection, schedule: Q04DX002 (ip), vehicle: saline with Tween-80): 100 % of control
T/C (endpoint: median survival time, dose: 200.0 mg/kg/injection, schedule: Q04DX002 (ip), vehicle: saline with Tween-80): 100 % of control

NNC(=O)c1cccc[n+]1[O-]
T/C (endpoint: mean survival time, dose: 12.5 mg/kg/injection, schedule: Q01DX001 (ip), vehicle: water): 98 % of control
T/C (endpoint: mean survival time, dose: 25.0 mg/kg/injection, schedule: Q01DX001 (ip), vehicle: water): 96 % of control
T/C (endpoint: mean survival time, dose: 50.0 mg/kg/injection, schedule: Q01DX001 (ip), vehicle: water): 93 % of control
T/C (endpoint: mean survival time, dose: 100.0 mg/kg/injection, schedule: Q01DX001 (ip), vehicle: water): 102 % of control
